# Columns and labels:
# [1] = target: T1, Serine/threonine-protein kinase 4 (Homo sapiens, UniProt Q13043); assay: Inhibition of recombinant full length N-terminal GST -tagged human MST1 expressed in baculovirus infected Sf9 insect cells using KKSRGDYMTMQIG as substrate incubated for 1 hr in presence of ATP by ADP-Glo luminescent assay
# T1 sequence (Q13043 whole entry): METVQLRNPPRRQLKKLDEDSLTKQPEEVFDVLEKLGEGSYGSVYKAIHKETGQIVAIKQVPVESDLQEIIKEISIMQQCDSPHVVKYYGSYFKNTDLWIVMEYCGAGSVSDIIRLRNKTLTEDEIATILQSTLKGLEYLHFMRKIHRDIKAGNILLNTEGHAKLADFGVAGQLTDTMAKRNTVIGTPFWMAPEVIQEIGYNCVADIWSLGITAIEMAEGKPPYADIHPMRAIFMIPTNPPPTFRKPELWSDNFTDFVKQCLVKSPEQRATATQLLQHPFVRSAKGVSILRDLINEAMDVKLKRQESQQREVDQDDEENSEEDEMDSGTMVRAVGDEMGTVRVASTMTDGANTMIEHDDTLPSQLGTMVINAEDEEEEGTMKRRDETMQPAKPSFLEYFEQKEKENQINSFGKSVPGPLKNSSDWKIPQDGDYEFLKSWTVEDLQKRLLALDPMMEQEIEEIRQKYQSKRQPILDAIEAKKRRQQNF
# [2] = test system: RAW264.7; assay: Inhibition of MST1 in mouse RAW264.7 cells assessed as reduction in H2O2-stimulated MOB1 phosphorylation at T35 residue preincubated for 2 hrs followed by H2O2 addition for 30 mins by Western blotting analysis; type: cell-based; conditions: dose 0.1-10 µM, time 2.5 hrs, DDE = dose-dependent effect
# [3] = test system: RAW264.7; assay: Inhibition of MST1 in mouse RAW264.7 cells assessed as reduction in H2O2-stimulated MST1/MST2 autophosphorylation at T183/T180 residues preincubated for 2 hrs followed by H2O2 addition for 30 mins by Western blotting analysis; type: cell-based; conditions: dose 0.1-10 µM, time 2.5 hrs, DDE = dose-dependent effect
SMILES,IC50 [1] [nM],inhibition [2],inhibition [3]
Cc1ccccc1C1C(=O)N(C)c2cnc(Nc3ccc(S(=O)(=O)N(C)C)cc3)nc2N1C (stereo not given),219,–,–
CNS(=O)(=O)c1ccc(Nc2ncc3c(n2)N(C)C(c2c(F)cccc2F)C(=O)N3C)cc1 (stereo not given),318,–,–
CC(C)C1C(=O)N(C)c2cnc(Nc3ccc(S(N)(=O)=O)cc3)nc2N1C (stereo not given),254,–,–
CN1C(=O)C(c2ccccc2Br)N(C)c2nc(Nc3ccc(S(N)(=O)=O)cc3)ncc21 (stereo not given),57,–,–
CN1C(=O)c2sccc2N(C)c2nc(Nc3ccc(S(N)(=O)=O)cc3)ncc21,104,Dde,Dde
Cc1ccccc1C1C(=O)N(C)c2cnc(Nc3ccc(S(=O)(=O)NC4CC4)cc3)nc2N1C (stereo not given),53,–,–
CN1C(=O)C(c2ccccc2Cl)N(C)c2nc(Nc3ccc(S(N)(=O)=O)cc3)ncc21 (stereo not given),129,–,–
CN1C(=O)C(CC2CC2)N(C)c2nc(Nc3ccc(S(N)(=O)=O)cc3)ncc21 (stereo not given),211,–,–
CCNS(=O)(=O)c1ccc(Nc2ncc3c(n2)N(C)C(c2ccccc2C)C(=O)N3C)cc1 (stereo not given),119,–,–
CNS(=O)(=O)c1ccc(Nc2ncc3c(n2)N(C)C(c2ccccc2C)C(=O)N3C)cc1 (stereo not given),104,–,–
COc1ccccc1C1C(=O)N(C)c2cnc(Nc3ccc(S(N)(=O)=O)cc3)nc2N1C (stereo not given),251,–,–
Cc1c(F)cccc1C1C(=O)N(C)c2cnc(Nc3ccc(S(N)(=O)=O)cc3)nc2N1C (stereo not given),419,–,–
CN1CC(=O)N(C)c2cnc(Nc3ccc(S(N)(=O)=O)cc3)nc21,495,–,–
CN1C(=O)C(c2c(F)cccc2F)N(C)c2nc(Nc3ccc(S(=O)(=O)N(C)C)cc3)ncc21 (stereo not given),181,–,–
CCC1C(=O)N(C)c2cnc(Nc3ccc(S(N)(=O)=O)cc3)nc2N1C (stereo not given),479,–,–
COc1cccc(C2C(=O)N(C)c3cnc(Nc4ccc(S(N)(=O)=O)cc4)nc3N2C)c1 (stereo not given),954,–,–
CN1C(=O)C(c2cccc(C(F)(F)F)c2)N(C)c2nc(Nc3ccc(S(N)(=O)=O)cc3)ncc21 (stereo not given),2710,–,–
Cc1ccc(F)cc1C1C(=O)N(C)c2cnc(Nc3ccc(S(N)(=O)=O)cc3)nc2N1C (stereo not given),168,–,–
CN1C(=O)C2(CCCCC2)N(C)c2nc(Nc3ccc(S(N)(=O)=O)cc3)ncc21,272,–,–
CN1C(=O)C(c2ccc(F)cc2)N(C)c2nc(Nc3ccc(S(N)(=O)=O)cc3)ncc21 (stereo not given),1770,–,–
Cc1ccccc1C1C(=O)N(C)c2cnc(Nc3ccc(C4(C#N)CC4)cc3)nc2N1C (stereo not given),256,–,–
CC1C(=O)N(C)c2cnc(Nc3ccc(S(N)(=O)=O)cc3)nc2N1C (stereo not given),313,–,–
CN1C(=O)C(Cc2ccccc2)N(C)c2nc(Nc3ccc(S(N)(=O)=O)cc3)ncc21 (stereo not given),> 10000,–,–
Cc1ccccc1C1C(=O)N(C)c2cnc(Nc3ccc(C(C)(C)C#N)cc3)nc2N1C (stereo not given),153,–,–
CCc1ccccc1C1C(=O)N(C)c2cnc(Nc3ccc(S(N)(=O)=O)cc3)nc2N1C (stereo not given),51,–,–
Cc1ccccc1C1C(=O)N(C)c2cnc(Nc3ccc(S(=O)(=O)NCC4CC4)cc3)nc2N1C (stereo not given),60,–,–
CN1C(=O)C(c2cccc(Cl)c2)N(C)c2nc(Nc3ccc(S(N)(=O)=O)cc3)ncc21 (stereo not given),989,–,–
CN1C(=O)C(c2ccccc2)N(C)c2nc(Nc3ccc(S(N)(=O)=O)cc3)ncc21 (stereo not given),383,–,–
